Results on six compounds are retold here after patent US5861400A, “Pharmaceutical compounds” (Xenova Limited, priority 1994, dated 1999).

For data set [1] the following is noted: Kamei et al, J. Antibiotics vol XLIII No. 8, 1018-1020; cited from earlier work.
Data set [2] has as its system AR 1.0 cells. Kind of data set: Drug accumulation assay (tritiated daunorubicin, AR 1.0 cells). It counts as cell-based, mouse. Particulars: Mus musculus, 1 h, daunorubicin accumulation, 37° C., DNR 2 μM. The method, then: (§1) The EMT6 mouse mammary carcinoma cell line and the MDR resistant subline AR 1.0 were cultured in RPMI 1640 medium containing 10% foetal calf serum and 2mM glutamine at 37° C. in 5% CO2. Cells were passaged between 1 in 200 and 1 in 2000 in the case of the parental cell line and between 1 in 20 and 1 in 200 in the case of the MDR resistant subline, after trypsinisation (0.25% trypsin, 0.2 gl^-1, EDTA).
1. Drug accumulation assay
AR 1.0 cells were seeded into 96 well opaque culture plates (Canberra Packard). The assay medium contained a mixture of tritiated Daunorubicin (DNR), a cytotoxic agent, and unlabelled DNR (0.25μ Ci/ml; 2 μM). Compounds of formula A were serially diluted in assay medium over a range of concentrations from 100 nM to 100 μM. The cells were incubated at 37° C. for 1 hr before washing and counting of cell associated radioactivity. Each assay included a titration of the known resistance modifying agent Verapamil as positive control. Results were expressed as % maximum accumulation where 100% accumulation is that observed in the presence of 100 μM Verapamil.

Data set [3] relates to AR 1.0 cells. The data set can be described thus: Potentiation of Doxorubicin toxicity (potentiation index, AR 1.0 cells). Format: cell-based, mouse. Particulars: Conc Comp 5 μM; doxorubicin 0.5 nM-50 μM, four days. The method, then: as §1
2. Potentiation of Doxorubicin toxicity
Compounds of formula A were examined for their ability to potentiate the toxicity of doxorubicin in AR 1.0 cells. In initial proliferation assays compounds were titrated against a fixed concentration of doxorubicin (0.5-1 μM) which alone is non-toxic to AR 1.0 cells. Incubations with doxorubicin were over a four day period before quantitation of proliferation using the calorimetric sulphorhodamine B assay (Skehan et al; J. Natl. Cancer Inst. 82 pp 1107-1112 (1990)).
Cells were cultured for four days with concentrations of doxorubicin over the range of 0.5 nM-50 μM in the presence of Verapramil at its maximum subtoxic level determined from previous experiments. Proliferation was quantified as described by Skehan et al, loc cit. The IC50 (concentration required to reduce proliferation to 50% of the untreated controls) for doxorubicin alone and with the Verapamil were derived and used to calculate the potentiation index (PI): […]

Data set [4] has as its system AR 1.0 cells. Kind of data set: Proliferation/toxicity assay, compound alone and with cytotoxic agent (sulphorhodamine B). It counts as cell-based, mouse.
Data set [5] has as its system MDR cells. Particulars: in vitro and in vivo; Cancer Res., 41, 1967-1972 (1981); cited from earlier work.
[6] abbreviates: Mus musculus, compound alone, read-out: COMPOUND TOXICITY (IC50 μM).
Where [7] appears, read: cytotoxic agent (doxorubicin) 0.50 μg/ml, 5760 min, read-out: TOXICITY WITH CYTOTOXIC AGENT (IC 50 μM).

With `O=c1[nH]/c(=C\c2ccccc2)c(=O)[nH]/c1=C\c1ccccc1` [B], the “potentiation of the cytotoxicity of vincristine” value in data set [1] is given as “have utility as potentiators of the cytotoxicity of vincristine”.
For the compound `Cn1c(=O)/c(=C/C2CCCCC2)n(C)c(=O)/c1=C/c1ccccc1` [Compound 1871, (3Z,6Z)-3-Benzylidene-6-cyclohexylmethylene-1,4-dimethyl-2,5-piperazinedione], the IC50 in data set [2] is 6 µM; in data set [4] (setting [6]), 40 µM; in data set [4] (setting [7]), 1 µM. Also, the “Potentiation Index (at 5 μM)” value in data set [3] turned out to be 20.
Taken in the same sequence, the figures for `Cn1c(=O)/c(=C/c2cn(CN3C(=O)c4ccccc4C3=O)c3ccccc23)n(C)c(=O)/c1=C/c1ccccc1` [Compound 1897] were 3 µM, 50 µM, 1.5 µM and 75.
For `Cn1c(=O)/c(=C/c2cn(C(=O)OCc3ccccc3)c3ccccc23)n(C)c(=O)/c1=C/c1ccccc1` [Compound 1940, (3Z,6Z)-3-Benzylidene-6-(1-benzyloxycarbonyl-3-indolyl)methylene-1,4-dimethyl-2,5-piperazinedione], the values for the IC50 in data set [2] and in data set [4] (setting [6]) were 10 µM and 7 µM, respectively. In addition, in data set [3], the “Potentiation Index (at 5 μM)” value was determined as 14.
Turning to `Cn1c(=O)/c(=C/c2cn(CCCN3C(=O)c4ccccc4C3=O)c3ccccc23)n(C)c(=O)/c1=C/c1ccccc1` [Compound 1943, (3Z,6Z)-3-Benzylidene-1,4-dimethyl-6-(3-(1-(3-phthalimido)propyl)indolyl)methylene-2,5-piperazinedione], the IC50 in data set [2] was 10 µM; in data set [4] (setting [6]) it was 60 µM; in data set [4] (setting [7]), 0.2 µM. For the same compound, the “Potentiation Index (at 5 μM)” value in data set [3] is on record as 20.
Turning to `COc1ccc(CCN(C)CCCC(C#N)(c2ccc(OC)c(OC)c2)C(C)C)cc1OC` (centres unmarked) [Verapamil], in data set [5], the “sensitisation of MDR cells to vinca alkaloids” value is “shown to sensitise MDR cells to vinca alkaloids in vitro and in vivo”.
